Series [1] concerns L1210. The experiment in a line: Antitumor activity against mouse L1210 cells […] in ip dosed C3H X DBA2 F1 hybrid mouse on day 0 and dosed at LD10 level once daily on days 1 to 5 assessed as increase in life span relative to control. Type of series: functional.
Series [2] relates to Mus musculus. The experiment in a line: Toxicity in ip dosed C3H X DBA2 F1 hybrid mouse […] with mouse L1210 cells on day 0 and dosed once daily on days 1 to 5 measured after 50 days. Type of series: organism-based. Particulars: in vivo, 1200 h.
Series [3] can be described thus: Lipophilic-hydrophilic balance, Rm of the compound by partition chromatography. The format is physicochemical.

For the compound `CCC[n+]1ccccc1Nc1ccc(NC(=O)c2ccc(C(=O)Nc3ccc(Nc4cccc[n+]4CCC)cc3)cc2)cc1.Cc1ccc(S(=O)(=O)[O-])cc1.Cc1ccc(S(=O)(=O)[O-])cc1`, the “log(ILSmax)” value in series [1] is given as below 1.4. The LD10 in series [2] is 100 mg/kg. Moreover, the Rm in series [3] is reported as 0.71.
For `CC[n+]1cccc2cc(NC(=O)c3ccc(C(=O)Nc4ccc5c(ccc[n+]5CC)c4)c(N)c3)ccc21.Cc1ccc(S(=O)(=O)[O-])cc1.Cc1ccc(S(=O)(=O)[O-])cc1` the same measures were below 1.4, 6 mg/kg and -0.01.
Taken in the same sequence, the figures for `CC[n+]1ccc(Nc2ccc(NC(=O)CCCCCC(=O)Nc3ccc(Nc4cc[n+](CC)cc4)cc3)cc2)cc1.[O-][Cl+3]([O-])([O-])[O-].[O-][Cl+3]([O-])([O-])[O-]` were below 1.4, 20 mg/kg and 0.69.
Regarding `C[n+]1cccc2cc(NC(=O)Cc3ccc(CC(=O)Nc4ccc5c(ccc[n+]5C)c4)cc3)ccc21.Cc1ccc(S(=O)(=O)[O-])cc1.Cc1ccc(S(=O)(=O)[O-])cc1`, the Rm in series [3] was determined as 0.07.
As for `C[n+]1cccc2cc(NC(=O)COc3ccc(C(=O)Nc4ccc5c(ccc[n+]5C)c4)cc3)ccc21.Cc1ccc(S(=O)(=O)[O-])cc1.Cc1ccc(S(=O)(=O)[O-])cc1`, the “log(ILSmax)” value in series [1] was below 1.4. The compound further yielded an LD10 in series [2] of 0.6 mg/kg. In series [3], this compound came in with a Rm of -0.3.
With `CCC[n+]1ccccc1NC(=O)c1ccc(NC(=O)c2ccc(C(=O)Nc3ccc(C(=O)Nc4cccc[n+]4CCC)cc3)cc2)cc1.Cc1ccc(S(=O)(=O)[O-])cc1.Cc1ccc(S(=O)(=O)[O-])cc1`, in series [1], the “log(ILSmax)” value is reported as below 1.4. Also, the LD10 in series [2] came to 100 mg/kg. This compound also displayed a Rm in series [3] of 0.73.
For `CCC[n+]1cccc(NC(=O)c2ccc(NC(=O)c3ccc(C(=O)Nc4ccc(C(=O)Nc5ccc[n+](CCC)c5)cc4)c(Cl)c3)cc2)c1.Cc1ccc(S(=O)(=O)[O-])cc1.Cc1ccc(S(=O)(=O)[O-])cc1` the same measures were below 1.4, 40 mg/kg and 0.75.
Turning to `CC[n+]1ccccc1NC(=O)c1ccc(NC(=O)c2ccc(C(=O)Nc3ccc(C(=O)Nc4cccc[n+]4CC)cc3)cc2)cc1.Cc1ccc(S(=O)(=O)[O-])cc1.Cc1ccc(S(=O)(=O)[O-])cc1`, in series [1], the “log(ILSmax)” value is below 1.4. For the same compound, in series [2], the LD10 came out at 13 mg/kg. The same compound showed a Rm in series [3] of 0.57.
Turning to `CCC[n+]1cccc(NC(=O)c2ccc(NC(=O)c3ccc(C(=O)Nc4ccc(C(=O)Nc5ccc[n+](CCC)c5)cc4)c(N)c3)cc2)c1.Cc1ccc(S(=O)(=O)[O-])cc1.Cc1ccc(S(=O)(=O)[O-])cc1`, in series [1], the “log(ILSmax)” value is below 1.4. In series [2], this compound yielded an LD10 of 47 mg/kg. Also, the Rm in series [3] is given as 0.2.
For `CCC[n+]1cccc(NC(=O)c2ccc(NC(=O)c3ccc(C(=O)Nc4ccc(C(=O)Nc5ccc[n+](CCC)c5)cc4)c(C)c3)cc2)c1.Cc1ccc(S(=O)(=O)[O-])cc1.Cc1ccc(S(=O)(=O)[O-])cc1` the same measures were below 1.4, 30 mg/kg and 0.75.
As for `CC[n+]1cccc(NC(=O)c2ccc(NC(=O)c3ccc(C(=O)Nc4ccc[n+](CC)c4)cc3)cc2)c1.Cc1ccc(S(=O)(=O)[O-])cc1.Cc1ccc(S(=O)(=O)[O-])cc1`, the “log(ILSmax)” value in series [1] was below 1.4. The compound further came in with an LD10 in series [2] of 8 mg/kg. The Rm in series [3] is reported as 0.3.
With `CCC[n+]1cccc(NC(=O)c2ccc(NC(=O)C34CCC(C(=O)Nc5ccc(C(=O)Nc6ccc[n+](CCC)c6)cc5)(CC3)CC4)cc2)c1.Cc1ccc(S(=O)(=O)[O-])cc1.Cc1ccc(S(=O)(=O)[O-])cc1`, the “log(ILSmax)” value in series [1] was 1.54. In addition, the LD10 in series [2] turned out to be 30 mg/kg. In series [3], the Rm was 0.86.
Turning to `CCCC[n+]1cccc2cc(NC(=O)c3ccc(NC(=O)c4ccc5c(ccc[n+]5CCCC)c4)cc3)ccc21.Cc1ccc(S(=O)(=O)[O-])cc1.Cc1ccc(S(=O)(=O)[O-])cc1`, in series [1], the “log(ILSmax)” value is given as below 1.4. The LD10 in series [2] was found to be 200 mg/kg. The Rm in series [3] came out at 0.59.
As to `CCCC[n+]1cccc2cc(NC(=O)Cc3ccc(CC(=O)Nc4ccc5c(ccc[n+]5CCCC)c4)cc3)ccc21.Cc1ccc(S(=O)(=O)[O-])cc1.Cc1ccc(S(=O)(=O)[O-])cc1`, the Rm in series [3] is given as 0.92.
Turning to `C[n+]1cccc2cc(NC(=O)c3ccc(C(=O)Nc4ccc5c(ccc[n+]5C)c4)nc3)ccc21.Cc1ccc(S(=O)(=O)[O-])cc1.Cc1ccc(S(=O)(=O)[O-])cc1`, the “log(ILSmax)” value in series [1] was below 1.4. The LD10 in series [2] amounted to 4 mg/kg. Besides, the Rm in series [3] was -0.4.
Taken in the same sequence, the figures for `CCCCCC[n+]1cccc2cc(NC(=O)c3ccc(C(=O)Nc4ccc5c(ccc[n+]5CCCCCC)c4)cc3)ccc21.Cc1ccc(S(=O)(=O)[O-])cc1.Cc1ccc(S(=O)(=O)[O-])cc1` were below 1.4, 27 mg/kg and 1.03.
For `CC[n+]1ccccc1-c1ccc(NC(=O)c2ccc(C(=O)Nc3ccc(-c4cccc[n+]4CC)cc3)cc2)cc1.Cc1ccc(S(=O)(=O)[O-])cc1.Cc1ccc(S(=O)(=O)[O-])cc1` the same measures were below 1.4, 10 mg/kg and 0.26.
For `CC[n+]1cccc2cc(NC(=O)CCc3ccc(C(=O)Nc4ccc5c(ccc[n+]5CC)c4)cc3)ccc21.Cc1ccc(S(=O)(=O)[O-])cc1.Cc1ccc(S(=O)(=O)[O-])cc1` the same measures were below 1.4, 1.6 mg/kg and 1.1.
With `CCOCC[n+]1cccc2cc(NC(=O)c3ccc(C(=O)Nc4ccc5c(ccc[n+]5CCOCC)c4)cc3)ccc21.Cc1ccc(S(=O)(=O)[O-])cc1.Cc1ccc(S(=O)(=O)[O-])cc1`, the “log(ILSmax)” value in series [1] is given as below 1.4. In addition, in series [2], the LD10 is 20 mg/kg. This compound yielded a Rm in series [3] of 0.8.
Taken in the same sequence, the figures for `CC[n+]1ccccc1Nc1ccc(NC(=O)c2ccc(C(=O)Nc3ccc(Nc4cccc[n+]4CC)cc3)cc2)cc1.[I-].[I-]` were below 1.4, 16 mg/kg and 0.53.
As to `CCC[n+]1cccc(NC(=O)c2ccc(NC(=O)c3ccc(C(=O)Nc4ccc[n+](CCC)c4)cc3)cc2)c1.Cc1ccc(S(=O)(=O)[O-])cc1.Cc1ccc(S(=O)(=O)[O-])cc1`, the “log(ILSmax)” value in series [1] is on record as below 1.4. Besides, the LD10 in series [2] stood at 15 mg/kg. Besides, the Rm in series [3] is reported as 0.65.
In series [3], `CC(=NNC(=N)N)c1ccc(NC(=O)c2ccc(C(=O)Nc3ccc(Nc4cc[n+](C)cc4)cc3)cc2)cc1.Cc1ccc(S(=O)(=O)O)cc1.Cc1ccc(S(=O)(=O)[O-])cc1` had a Rm of -0.15.
On to `C[n+]1cccc2cc(NC(=O)CCc3ccc(C(=O)Nc4ccc5c(ccc[n+]5C)c4)cc3)ccc21.Cc1ccc(S(=O)(=O)[O-])cc1.Cc1ccc(S(=O)(=O)[O-])cc1`, for which the “log(ILSmax)” value in series [1] is below 1.4. This compound displayed an LD10 in series [2] of 270 mg/kg. Further, the Rm in series [3] turned out to be 0.85.
For `CCCCC[n+]1cccc2cc(NC(=O)c3ccc(C(=O)Nc4ccc5c(ccc[n+]5CCCCC)c4)nc3)ccc21.Cc1ccc(S(=O)(=O)[O-])cc1.Cc1ccc(S(=O)(=O)[O-])cc1` the same measures were below 1.4, 250 mg/kg and 0.6.
With `CC[n+]1ccc(Nc2ccc(NC(=O)c3ccc(Nc4cc[n+](CC)c5ccccc45)cc3N)cc2N)cc1.[I-].[I-]`, in series [1], the “log(ILSmax)” value is below 1.4. Moreover, the LD10 in series [2] amounted to 20 mg/kg. In addition, in series [3], the Rm turned out to be 0.35.
For the compound `CCC[n+]1ccc(Nc2ccc(NC(=O)c3ccc(Nc4cc[n+](CCC)c5ccccc45)cc3)cc2N)cc1.[I-].[I-]`, the “log(ILSmax)” value in series [1] is listed as 1.43. In series [2], the LD10 was 4.4 mg/kg. Further, the Rm in series [3] is 0.76.
Taken in the same sequence, the figures for `C[n+]1cccc2cc(NC(=O)/C=C/c3ccc(C(=O)Nc4ccc5c(ccc[n+]5C)c4)cc3)ccc21.Cc1ccc(S(=O)(=O)[O-])cc1.Cc1ccc(S(=O)(=O)[O-])cc1` were below 1.4, 3 mg/kg and -0.2.
For `CCC[n+]1cccc2cc(NC(=O)CCc3ccc(C(=O)Nc4ccc5c(ccc[n+]5CCC)c4)cc3)ccc21.Cc1ccc(S(=O)(=O)[O-])cc1.Cc1ccc(S(=O)(=O)[O-])cc1` the same measures were below 1.4, 2 mg/kg and 1.25.
Consider `CCC[n+]1ccc(Nc2ccc(NC(=O)c3ccc(Nc4cc[n+](CCC)c5ccccc45)cc3N)cc2N)cc1.[I-].[I-]`, for which the “log(ILSmax)” value in series [1] was below 1.4. Also, the LD10 in series [2] was 15 mg/kg. The same compound returned a Rm in series [3] of 0.63.
For the compound `C[n+]1cccc2cc(NC(=O)c3ccc(C(=O)Nc4ccc5c(ccc[n+]5C)c4)cc3)ccc21.Cc1ccc(S(=O)(=O)[O-])cc1.Cc1ccc(S(=O)(=O)[O-])cc1`, the “log(ILSmax)” value in series [1] is below 1.4. This compound also yielded an LD10 in series [2] of 5 mg/kg. In series [3], the Rm is -0.21.
`CC[n+]1ccc(Nc2ccc(NC(=O)CCCCCCC(=O)Nc3ccc(Nc4cc[n+](CC)cc4)cc3)cc2)cc1.[Br-].[Br-]`: the “log(ILSmax)” value in series [1] is listed as below 1.4. Moreover, the LD10 in series [2] stood at 10 mg/kg. Besides, the Rm in series [3] stood at 0.83.
With `C[n+]1ccccc1-c1ccc(NC(=O)c2ccc(C(=O)Nc3ccc(-c4cccc[n+]4C)cc3)cc2)cc1.Cc1ccc(S(=O)(=O)[O-])cc1.Cc1ccc(S(=O)(=O)[O-])cc1`, the “log(ILSmax)” value in series [1] is listed as below 1.4. Moreover, the LD10 in series [2] was found to be 10 mg/kg. Moreover, in series [3], the Rm is listed as 0.11.
Take `CC[n+]1cccc2cc(NC(=O)c3ccc(NC(=O)c4ccc5c(ccc[n+]5CC)c4)cc3)ccc21.Cc1ccc(S(=O)(=O)[O-])cc1.Cc1ccc(S(=O)(=O)[O-])cc1`: the “log(ILSmax)” value in series [1] was below 1.4. Also, in series [2], the LD10 amounted to 4 mg/kg. In addition, the Rm in series [3] is reported as 0.02.
For `C[n+]1ccccc1NC(=O)c1ccc(NC(=O)c2ccc(C(=O)Nc3ccc(C(=O)Nc4cccc[n+]4C)cc3)cc2)cc1.Cc1ccc(S(=O)(=O)[O-])cc1.Cc1ccc(S(=O)(=O)[O-])cc1` the same measures were below 1.4, 7 mg/kg and 0.11.
